Patent US10442804B2, “Compounds for the treatment of hepatitis B virus infection” (Gilead Sciences, Inc., priority 2017, dated 2019)
Read-outs that look alike come from different tables or passages of the source.

Assays:
MT-4 cytotoxicity assay = format: cell-based, human; details: human
Procedure: Biological Example 2: MT-4 Cytotoxicity Assay
The MT-4 cell line (HTLV-1 transformed, human T lymphoblastoid cells) was obtained from the NIH AIDS Reagent program (Bethesda, Md.). MT-4 cells were maintained in RPMI-1640 media (Thermo Fisher Scientific, Waltham, Mass.) supplemented with 10% fetal bovine serum, 100 Units/mL penicillin, and 100 μg/mL streptomycin. For the MT-4 cytotoxicity assay, 0.4 μL of serially diluted solutions of certain compounds disclosed herein were added to 40 μL of cell maintenance media in 384-well black, solid bottom plate using a Biomek FX workstation (Beckman Coulter, Brea, Calif.). Two thousand cells in 35 μL were added to each well using a Biotek uFlow Workstation (Biotek, Winooski, Vt.). Each assay plate contained 10 μM puromycin (final concentration) and 0.5% DMSO in RPMI-1640 media as positive and negative controls, respectively. Assay plates were incubated for five days at 37° C. in an incubator set at 5% CO2 and 90% humidity. After five days, 22 μL of Cell Titer Glo reagent (Promega, Madison, Wis.) was added to the assay plates with a Biotek uFlow Workstation. Plates were subsequently placed on an Envision Plate Reader (Perkin Elmer, Waltham, Mass.) for five minutes before the luminescence signal was read. CC50 values were defined as the compound concentration that caused a 50% decrease in luminescence signal, and were calculated by non-linear regression using Pipeline Pilot software by applying a four parameter fit equation (Accelrys, San Diego, Calif.) and are reported in the following Table 1.

[1] = tested on: HBV-infected NTCP-HepG2 cells, secreted HBsAg; assay: microbe, parasite or virus in culture; format: cell-based, hepatitis B virus (genotype D, AD38-derived); details: Hepatitis B virus, 120 h, secreted HBsAg in supernatant after 5 days; geometric mean of minimum four determinations; read-out: NTCP HBsAg EC50
Procedure: NTCP-HepG2 Antiviral Assay for Secreted HBsAg
HepG2 cells stably expressing sodium-taurocholate cotransporting polypeptide (NTCP-HepG2) were grown in Dulbecco's Modified Eagle Medium (DMEM) without sodium pyruvate (Thermo Fisher Scientific, Waltham, Mass.) supplemented with 10% fetal bovine serum, 2 mM L-glutamine, 1% penicillin/streptomycin, and 0.25 mg/mL G-418. NTCP-HepG2 cells were infected with 4000 genome equivalent per cell of genotype D (AD38-derived) HBV in DMEM without sodium pyruvate (Thermo Fisher Scientific, Waltham, Mass.) supplemented with 2% fetal bovine serum, 2 mM L-glutamine, 1% penicillin/streptomycin, 2.5% DMSO, and 4% PEG 8000 (Promega, Madison, Wis.). After 24-hour incubation, cells were washed three times with OptiMEM (Thermo Fisher Scientific, Waltham, Mass.) and fed with fresh DMEM without sodium pyruvate (Thermo Fisher Scientific, Waltham, Mass.) supplemented with 2% fetal bovine serum, 2 mM L-glutamine, 1% penicillin/streptomycin, and 2.5% DMSO. At 4 days after infection, infected NTCP-HepG2 cells were seeded on 384-well plates pre-coated with collagen at a density of 20000 cells per well containing serially diluted compounds of the present disclosure or DMSO (0.5%) in a final volume of 80 μl of DMEM without sodium pyruvate (Thermo Fisher Scientific, Waltham, Mass.) supplemented with 2% fetal bovine serum, 2 mM L-glutamine, 1% penicillin/streptomycin, and 1% DMSO. After an incubation time of 5 days, cell culture supernatant was collected and measured for HBsAg.
Secreted HBsAg in the supernatant were measured using a multiplex chemiluminescent MSD assay (Meso Scale Discovery, Rockville, Md.) using capture and detection antibody pairs specific for HBsAg. The EC50 values were calculated from the fit of the dose-response curves to a four-parameter equation. All EC50 values represent geometric mean values of a minimum of four determinations.

[2] = five days, Cell Titer Glo luminescence, read-out: MT-4 CC50

| SMILES | CC50 at 5 days (MT-4 cytotoxicity assay; [2]) [nM] | EC50 [1] [nM] | CC50 at 5 days (MT-4 cytotoxicity assay; MT-4 CC50) [nM] |
| --- | --- | --- | --- |
| COCc1cc2c(cc1OCC13CC(C#N)(C1)C3)[C@H]1CCC(C)(C)N1n1cc(C(=O)O)c(=O)cc1-2 [Example 74, (R)-12-((3-cyanobicyclo[1.1.1]pentan-1-yl)methoxy)-11-(methoxymethyl)-3,3-dimethyl-8-oxo-2,3,8,13b-tetrahydro-1H-pyrido[2,1-a]pyrrolo[1,2-c]phthalazine-7-carboxylic acid] | > 10000 | 3.8 | – |
| COCCOCc1cc2c(cc1OC(F)F)-c1cc(=O)c(C(=O)O)cn1N1[C@@H]2CCC1(C)C [Compound 108, (R)-11-(difluoromethoxy)-12-((2-methoxyethoxy)methyl)-3,3-dimethyl-8-oxo-2,3,8,13b-tetrahydro-1H-pyrido[2,1-a]pyrrolo[1,2-c]phthalazine-7-carboxylic acid] | > 10000 | 16.8 | – |
| COCCCOc1cc2c(cc1OC(F)F)-c1cc(=O)c(C(=O)O)cn1N1C2CCC1(C)C (centres unmarked) [Example 18, 11-(difluoromethoxy)-12-(3-methoxypropoxy)-3,3-dimethyl-8-oxo-2,3,8,13b-tetrahydro-1H-pyrido[2,1-a]pyrrolo[1,2-c]phthalazine-7-carboxylic acid] | > 10000 | 4 | – |
| COCCCOc1cc2c(cc1Cl)-c1cc(=O)c(C(=O)O)cn1N1C2CCC1(C)C (centres unmarked) [Example 4, 11-chloro-12-(3-methoxypropoxy)-3,3-dimethyl-8-oxo-2,3,8,13b-tetrahydro-1H-pyrido[2,1-a]pyrrolo[1,2-c]phthalazine-7-carboxylic acid] | > 10000 | 3.9 | – |
| COCCCOc1cc2c(cc1Cl)-c1cc(=O)c(C(=O)O)cn1N1[C@H]2CCC1(C)C (single isomer, unassigned) [Example 6] | > 10000 | 300 | – |
| COCCCOc1cc2c(cc1Cl)-c1cc(=O)c(C(=O)O)cn1N1[C@@H](C)CC[C@@H]21 (single isomer, unassigned) [Example 8] | > 10000 | 200 | – |
| COCCCOc1cc2c(cc1OC(F)F)-c1cc(=O)c(C(=O)O)cn1N1[C@H]2CCC1(C)C (single isomer, unassigned) [Example 20] | > 10000 | 43 | – |
| COC(C)(C)C#Cc1cc2c(cc1C1CC1)-c1cc(=O)c(C(=O)O)cn1N1[C@@H]2CCC1(C)C [Example 72, (R)-11-cyclopropyl-12-(3-methoxy-3-methylbut-1-yn-1-yl)-3,3-dimethyl-8-oxo-2,3,8,13b-tetrahydro-1H-pyrido[2,1-a]pyrrolo[1,2-c]phthalazine-7-carboxylic acid] | 6400 | 0.95 | – |
| CC1(C)CC[C@@H]2c3cc(-c4cnn(C(F)F)c4)c(Cl)cc3-c3cc(=O)c(C(=O)O)cn3N21 [Example 76, (R)-11-chloro-12-(1-(difluoromethyl)-1H-pyrazol-4-yl)-3,3-dimethyl-8-oxo-2,3,8,13b-tetrahydro-1H-pyrido[2,1-a]pyrrolo[1,2-c]phthalazine-7-carboxylic acid] | 4400 | 6.3 | – |
| COCCCOc1cc2c(cc1COC)-c1cc(=O)c(C(=O)O)cn1N1[C@@H]2CCC12CC2 [Example 87, (R)-11′-(methoxymethyl)-12′-(3-methoxypropoxy)-8′-oxo-1′,2′,8′,13b′-tetrahydrospiro[cyclopropane-1,3′-pyrido[2,1-a]pyrrolo[1,2-c]phthalazine]-7′-carboxylic acid] | – | 4.2 | > 10000 |
| CCc1cc2c(cc1OCC13CC(C#N)(C1)C3)[C@H]1CCC(C)(C)N1n1cc(C(=O)O)c(=O)cc1-2 [Example 100, (R)-12-((3-cyanobicyclo[1.1.1]pentan-1-yl)methoxy)-11-ethyl-3,3-dimethyl-8-oxo-2,3,8,13b-tetrahydro-1H-pyrido[2,1-a]pyrrolo[1,2-c]phthalazine-7-carboxylic acid] | 3900 | 0.48 | – |
| CC1(C)CC[C@@H]2c3cc(OCCn4nc5ccccn5c4=O)c(OC(F)(F)F)cc3-c3cc(=O)c(C(=O)O)cn3N21 [Example 91, (R)-3,3-dimethyl-8-oxo-12-(2-(3-oxo-[1,2,4]triazolo[4,3-a]pyridin-2(3H)-yl)ethoxy)-11-(trifluoromethoxy)-2,3,8,13b-tetrahydro-H-pyrido[2,1-a]pyrrolo[1,2-c]phthalazine-7-carboxylic acid] | > 10000 | 3 | – |
| COCCCOc1cc2c(cc1Cl)-c1cc(=O)c(C(=O)O)cn1N1CCCC21 (centres unmarked) [Example 1, 11-chloro-12-(3-methoxypropoxy)-8-oxo-2,3,8,13b-tetrahydro-1H-pyrido[2,1-a]pyrrolo[1,2-c]phthalazine-7-carboxylic acid] | 8000 | 90 | – |
| COCCCOc1cc2c(cc1Cl)-c1cc(=O)c(C(=O)O)cn1[C@@H]1[C@H]2CCC1(C)C (single isomer, unassigned) [Example 34] | > 10000 | 220 | – |
| CCOc1cc2c(cc1OCCCOC)[C@H]1CCC(C)(C)N1n1cc(C(=O)O)c(=O)cc1-2 [Example 21, (R)-11-ethoxy-12-(3-methoxypropoxy)-3,3-dimethyl-8-oxo-2,3,8,13b-tetrahydro-1H-pyrido[2,1-a]pyrrolo[1,2-c]phthalazine-7-carboxylic acid] | > 10000 | 7.5 | – |
| COc1cc2c(cc1OCCC(C)(C)OC)[C@H]1CCC(C)(C)N1n1cc(C(=O)O)c(=O)cc1-2 [Example 64, (R)-11-methoxy-12-(3-methoxy-3-methylbutoxy)-3,3-dimethyl-8-oxo-2,3,8,13b-tetrahydro-1H-pyrido[2,1-a]pyrrolo[1,2-c]phthalazine-7-carboxylic acid] | > 10000 | 0.84 | – |
| COCCCOc1cc2c(cc1Cl)-c1cc(=O)c(C(=O)O)cn1N1[C@H]2COCC1(C)C (single isomer, unassigned) [Example 39] | > 10000 | 680 | – |
| COCc1cc2c(cc1OCCCOC(=O)NC1(C(F)F)CC1)[C@H]1CCC(C)(C)N1n1cc(C(=O)O)c(=O)cc1-2 [Example 88, (R)-12-(3-(((1-(Difluoromethyl)cyclopropyl)carbamoyl)oxy)propoxy)-11-(methoxymethyl)-3,3-dimethyl-8-oxo-2,3,8,13b-tetrahydro-H-pyrido[2,1-a]pyrrolo[1,2-c]phthalazine-7-carboxylic acid] | > 10000 | 5.4 | – |
| CC1(C)CC[C@@H]2c3cc(-c4cnn(C5COC5)c4)c(OC(F)(F)F)cc3-c3cc(=O)c(C(=O)O)cn3N21 [Example 93, (R)-3,3-dimethyl-12-(1-(oxetan-3-yl)-1H-pyrazol-4-yl)-8-oxo-11-(trifluoromethoxy)-2,3,8,13b-tetrahydro-1H-pyrido[2,1-a]pyrrolo[1,2-c]phthalazine-7-carboxylic acid] | > 10000 | 4.4 | – |
| COCCCOc1cc2c(cc1Cl)-c1cc(=O)c(C(=O)O)cn1[C@@H]1[C@@H]2CCC1(C)C (single isomer, unassigned) [Example 36] | > 10000 | 170 | – |
| COCc1cc2c(cc1OCC1(COC)CC1)[C@H]1CCC(C)(C)N1n1cc(C(=O)O)c(=O)cc1-2 [Compound 109, (R)-11-(methoxymethyl)-12-((1-(methoxymethyl)cyclopropyl)methoxy)-3,3-dimethyl-8-oxo-2,3,8,13b-tetrahydro-1H-pyrido[2,1-a]pyrrolo[1,2-c]phthalazine-7-carboxylic acid] | > 10000 | 13.2 | – |
| CC1(C)CC[C@@H]2c3cc(C#Cc4ccc(N)nc4)c(OC(F)F)cc3-c3cc(=O)c(C(=O)O)cn3N21 [Compound 106, (R)-12-((6-aminopyridin-3-yl)ethynyl)-11-(difluoromethoxy)-3,3-dimethyl-8-oxo-2,3,8,13b-tetrahydro-1H-pyrido[2,1-a]pyrrolo[1,2-c]phthalazine-7-carboxylic acid] | 7500 | 0.37 | – |
